# From PubChem BioAssay (NCI)
#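 Following 48 hours of exposure in 96-well plates, responses at five concentrations were used to interpolate endpoints linearly. GI50 marks 50% less growth. TGI: total growth inhibition.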
# Experiments:
# Assay in all cases: growth of human tumour cells (NCI), 48 h
# [1] = tested on: ACHN renal
# [2] = tested on: SF-295 CNS
# [3] = tested on: NCI-H522 lung
# [4] = tested on: KM12 colon
# [5] = tested on: M14 melanoma
# [6] = tested on: HOP-62 NSCLC
# [7] = tested on: SW-620 colon
# [8] = tested on: NCI/ADR-RES ovarian
# [9] = tested on: CAKI-1 renal
# [10] = tested on: SNB-19 CNS
# [11] = tested on: UACC-62 melanoma
# [12] = tested on: U251 CNS
# [13] = tested on: MALME-3M melanoma
# [14] = tested on: MOLT-4 leukemia
# [15] = tested on: LOX IMVI melanoma
# [16] = tested on: SF-539 CNS
# [17] = tested on: RPMI-8226 leukemia
# [18] = tested on: HCT-116 colon
# [19] = tested on: MDA-MB-231 breast
# [20] = tested on: SF-268 CNS
# [21] = tested on: OVCAR-4 ovarian
# [22] = tested on: NCI-H226 lung
# [23] = tested on: RXF 393 renal
# [24] = tested on: NCI-H23 lung
# [25] = tested on: OVCAR-8 ovarian
# [26] = tested on: HT29 colon
# [27] = tested on: OVCAR-3 ovarian
# [28] = tested on: SNB-75 CNS
# [29] = tested on: IGROV1 ovarian
# [30] = tested on: DU-145 prostate
# [31] = tested on: CCRF-CEM leukemia
# [32] = tested on: SN12C renal
# [33] = tested on: COLO 205 colon
# [34] = tested on: HL-60(TB) leukemia
# [35] = tested on: PC-3 prostate
# [36] = tested on: EKVX NSCLC
# [37] = tested on: HOP-92 NSCLC
# [38] = tested on: 786-0 renal
# [39] = tested on: HCT-15 colon
# [40] = tested on: TK-10 renal
# [41] = tested on: UO-31 renal
# [42] = tested on: SK-MEL-28 melanoma
# [43] = tested on: A498 renal
# [44] = tested on: MDA-MB-435
# [45] = tested on: A549 NSCLC
# [46] = tested on: OVCAR-5 ovarian
# [47] = tested on: SK-OV-3 ovarian
# [48] = tested on: T-47D breast
# [49] = tested on: NCI-H460 lung
# [50] = tested on: HS 578T breast
# [51] = tested on: K-562 leukemia
# [52] = tested on: SK-MEL-5 melanoma
# [53] = tested on: SR leukemia
# [54] = tested on: HCC-2998 colon
# [55] = tested on: BT-549 breast
# [56] = tested on: UACC-257 melanoma
# [57] = tested on: SK-MEL-2 melanoma
# [58] = tested on: MCF7 breast
structure (smiles),measurement,setting,value
CN1CCN(Cc2ccc(NC(=O)c3cncc(C#Cc4cnc5ccc(OC6CCOCC6)nn45)c3)cc2C(F)(F)F)CC1,GI50,[1],105 nM
same,TGI,[1],1750 nM
same,GI50,[2],145 nM
same,TGI,[2],1560 nM
same,GI50,[3],88 nM
same,TGI,[3],182 nM
same,GI50,[4],5 nM
same,TGI,[4],305 nM
same,GI50,[5],49.3 nM
same,TGI,[5],154 nM
same,GI50,[6],165 nM
same,TGI,[6],953 nM
same,GI50,[7],61.3 nM
same,TGI,[7],332 nM
same,GI50,[8],348 nM
same,TGI,[8],1770 nM
same,GI50,[9],43.7 nM
same,TGI,[9],252 nM
same,GI50,[10],221 nM
same,TGI,[10],1640 nM
same,GI50,[11],127 nM
same,TGI,[11],732 nM
same,GI50,[12],142 nM
same,TGI,[12],527 nM
same,GI50,[13],69.4 nM
same,TGI,[13],382 nM
same,GI50,[14],36.4 nM
same,TGI,[14],638 nM
same,GI50,[15],71.9 nM
same,TGI,[15],420 nM
same,GI50,[16],39.3 nM
same,TGI,[16],526 nM
same,GI50,[17],183 nM
same,TGI,[17],973 nM
same,GI50,[18],37.5 nM
same,TGI,[18],228 nM
same,GI50,[19],38 nM
same,TGI,[19],176 nM
same,GI50,[20],142 nM
same,TGI,[20],687 nM
same,GI50,[21],151 nM
same,TGI,[21],1190 nM
same,GI50,[22],24.1 nM
same,TGI,[22],762 nM
same,GI50,[23],96.5 nM
same,TGI,[23],288 nM
same,GI50,[24],120 nM
same,TGI,[24],474 nM
same,GI50,[25],132 nM
same,TGI,[25],604 nM
same,GI50,[26],73.2 nM
same,TGI,[26],317 nM
same,GI50,[27],123 nM
same,TGI,[27],998 nM
same,GI50,[28],17.8 nM
same,TGI,[28],209 nM
same,GI50,[29],56.2 nM
same,TGI,[29],503 nM
same,GI50,[30],141 nM
same,TGI,[30],769 nM
same,GI50,[31],11.3 nM
same,TGI,[31],3130 nM
same,GI50,[32],52.9 nM
same,TGI,[32],408 nM
same,GI50,[33],95.3 nM
same,TGI,[33],302 nM
same,GI50,[34],57.5 nM
same,TGI,[34],285 nM
same,GI50,[35],144 nM
same,TGI,[35],1120 nM
same,GI50,[36],173 nM
same,TGI,[36],805 nM
same,GI50,[37],9.44 nM
same,TGI,[37],65.7 nM
same,GI50,[38],244 nM
same,TGI,[38],890 nM
same,GI50,[39],95.3 nM
same,TGI,[39],324 nM
same,GI50,[40],90.7 nM
same,TGI,[40],227 nM
same,GI50,[41],158 nM
same,TGI,[41],729 nM
same,GI50,[42],256 nM
same,TGI,[42],1050 nM
same,GI50,[43],246 nM
same,TGI,[43],797 nM
same,GI50,[44],61.7 nM
same,TGI,[44],603 nM
same,GI50,[45],90.9 nM
same,TGI,[45],562 nM
same,GI50,[46],257 nM
same,TGI,[46],1580 nM
same,GI50,[47],316 nM
same,TGI,[47],1160 nM
same,GI50,[48],543 nM
same,TGI,[48],2420 nM
same,GI50,[49],67.4 nM
same,TGI,[49],618 nM
same,GI50,[50],105 nM
same,TGI,[50],648 nM
same,GI50,[51],5 nM
same,TGI,[51],702 nM
same,GI50,[52],596 nM
same,TGI,[52],1350 nM
same,GI50,[53],37.8 nM
same,TGI,[53],332 nM
same,GI50,[54],149 nM
same,TGI,[54],457 nM
same,GI50,[55],537 nM
same,TGI,[55],1510 nM
same,GI50,[56],215 nM
same,TGI,[56],780 nM
same,GI50,[57],90.6 nM
same,TGI,[57],199 nM
same,GI50,[58],37.6 nM
same,TGI,[58],415 nM
